For experiment [1], the target named is T1, UvrA (Escherichia coli, UniProt P0A698).
T1 construct: recombinant, IPTG-induced, Ni-NTA purified; plasmid as in Bernacchia et al. 2023; homodimer
In words: NADH-linked ATPase assay, Hill fit. It counts as biochemical.

Experiment [2] has as its target T2, UvrA-mNeonGreen (UvrA-mNG) (Escherichia coli, UniProt P0A698).
T2 construct: C-terminal mNeonGreen reporter fusion; plasmid as in Bernacchia et al. 2023
In words: C-trap optical tweezers, single-molecule DNA binding. It is filed as biochemical. To be noted: 20 μM Bemcentinib; lambda DNA at 50 pN; 1 mM ATP, 10 mM MgCl2, pH 7.5.

T2 sequence (P0A698 whole entry, the tested form may be a part): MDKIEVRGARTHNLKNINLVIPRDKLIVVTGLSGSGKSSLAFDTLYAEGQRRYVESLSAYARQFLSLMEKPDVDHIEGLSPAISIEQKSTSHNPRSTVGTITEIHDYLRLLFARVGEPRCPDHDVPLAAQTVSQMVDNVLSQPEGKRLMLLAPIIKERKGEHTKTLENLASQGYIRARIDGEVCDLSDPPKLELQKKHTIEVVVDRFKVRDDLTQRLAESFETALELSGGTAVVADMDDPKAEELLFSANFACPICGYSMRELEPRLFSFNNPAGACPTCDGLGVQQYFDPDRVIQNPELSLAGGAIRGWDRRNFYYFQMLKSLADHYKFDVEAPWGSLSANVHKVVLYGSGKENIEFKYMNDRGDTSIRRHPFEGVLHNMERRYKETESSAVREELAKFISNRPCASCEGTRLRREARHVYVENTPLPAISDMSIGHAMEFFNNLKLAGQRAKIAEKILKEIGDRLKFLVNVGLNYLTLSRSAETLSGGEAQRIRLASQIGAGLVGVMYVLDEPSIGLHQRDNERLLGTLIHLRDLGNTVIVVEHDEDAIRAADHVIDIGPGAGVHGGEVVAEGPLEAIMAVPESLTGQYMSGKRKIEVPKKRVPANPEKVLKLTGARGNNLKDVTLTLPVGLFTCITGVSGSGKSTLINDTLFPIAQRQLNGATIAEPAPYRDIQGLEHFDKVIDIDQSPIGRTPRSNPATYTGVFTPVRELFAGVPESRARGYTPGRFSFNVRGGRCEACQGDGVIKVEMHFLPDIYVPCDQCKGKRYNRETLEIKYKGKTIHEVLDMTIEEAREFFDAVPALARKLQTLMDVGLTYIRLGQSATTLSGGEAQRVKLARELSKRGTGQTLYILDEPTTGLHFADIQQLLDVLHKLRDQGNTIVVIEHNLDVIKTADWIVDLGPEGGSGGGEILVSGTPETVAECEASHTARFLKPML
T1 sequence (P0A698 whole entry): as the sequence (P0A698 whole entry, the tested form may be a part) above

In experiment [1], `Nc1nc(Nc2ccc3c(c2)CC[C@@H](N2CCCC2)CC3)nn1-c1cc2c(nn1)-c1ccccc1CCC2` [Bemcentinib] yielded an IC50 of 7.49 µM. Moreover, the “% reduction in DNA binders per minute at 20 μM” value in experiment [2] is ~ 90%.

The term IC50 denotes the concentration at which inhibition is half-maximal. The low end stands for greater potency in that assay, the high end for weaker potency in that assay.

For the origin of these results see article PMC10949335, “Identification of a novel DNA repair inhibitor using an in silico driven approach shows effective combinatorial activity with genotoxic agents against multidrug‐resistant Escherichia coli” (Protein Science : A Publication of the Protein Society, 2024).
